Assay results taken from patent US8658698B2, “Insecticidal compounds” (Syngenta Crop Protection, LLC, priority 2008, dated 2014).

Key:
Type in all cases: in vivo
[1] = tested on: Myzus persicae (Green Peach Aphid); assay: Myzus persicae sucrose solution feeding test; settings: same protocol, 12.5 ppm, 6 days
Method: (§1) This Example illustrates the pesticidal/insecticidal properties of compounds of formula (I). The tests were performed as follows:
(§2) Cotton leaf discs were placed on agar in a 24-well microtiter plate and sprayed with test solutions at an application rate of 200 ppm. After drying, the leaf discs were infested with 5 L1 larvae. The samples were checked for mortality, feeding behavior, and growth regulation 3 days after treatment (DAT). The following compounds gave at least 80% control of Spodoptera littoralis: A2, A6, A8, A9, A10, A11, A13, A15, A19, A20, A22, A25, A27, A29, A31, A33, A35, A41, A50, A55, A60, A65, A73, A88, A92, and A94. Heliothis virescens (Tobacco Budworm): Eggs (0-24 h old) were placed in 24-well microtiter plate on artificial diet and treated with test solutions at an application rate of 200 ppm (concentration in well 18 ppm) by pipetting. After an incubation period of 4 days, samples were checked for egg mortality, larval mortality and growth regulation. The following compounds gave at least 80% control of Heliothis virescens: A2, A3, A4, A5, A6, A7, A9, A10, A11, A13, A15, A19, A20, A22, A25, A26, A27, A28, A29, A31, A32, A33, A35, A38, A40, A41, A43, A46, A55, A59, A60, A65, A69, A70, A71, A73, A74, A75, A77, A79, A80, A82, A86, A88, A89, A90, A92, A94, A96, A98, and A100. Plutella xylostella (Diamond Back Moth): A 24-well microtiter plate (MTP) with artificial diet was treated with test solutions at an application rate of 200 ppm (concentration in well 18 ppm) by pipetting. After drying, the MTP's were infested with L2 larvae (7-12 per well). After an incubation period of 6 days, samples were checked for larval mortality and growth regulation. The following compounds gave at least 80% control of Plutella xylostella: A3, A4, A5, A6, A7, A8, A10, A15, A16, A18, A19, A20, A22, A25, A26, A27, A28, A29, A31, A32, A33, A35, A38, A40, A55, A69, A71, A73, A74, A75, A76, A77, A78, A80, A82, A86, A87, A88, A89, A92, A94, A96, A97, A98, and A99. Diabrotica balteata (Corn Root Worm): A 24-well microtiter plate (MTP) with artificial diet was treated with test solutions at an application rate of 200 ppm (concentration in well 18 ppm) by pipetting. After drying, the MTP's were infested with larvae (L2) (6-10 per well). After an incubation period of 5 days, samples were checked for larval mortality, and growth regulation. The following compounds gave at least 80% control of Diabrotica balteata: A5, A6, A7, A14, A15, A18, A24, A35, A53, A55, A70, A71, A75, A79, A84, A85, A88, A92, A93, A95, A96, A97, A98, A99, A100, A101, A102, A103, and A104. Myzus persicae (Green Peach Aphid): Each well of a 24-well microtiter plate is filled with 0.6 ml 30% sucrose solution, containing 12.5 ppm of the test compounds. The wells are covered with streched parafilm and infested with a mixed population of Myzus persicae. After an incubation period of 6 days, samples are checked for mortality (feeding activity). The following compounds gave at least 80% control of Myzus persicae: A4, A6, A10, A11, A15, A19, A20, A24, A27, A29, A33, A34, A36, A37, A39, A40, A41, A42, A43, A44, A45, A46, A47, A48, A49, A55, A60, and A82. Tetranychus urticae (Two-Spotted Spider Mite): Bean leaf discs on agar in 24-well microtiter plates were sprayed with test solutions at an application rate of 200 ppm. After drying, the leaf discs are infested with mite populations of mixed ages. 8 days later, discs are checked for egg mortality, larval mortality, and adult mortality. The following compounds gave at least 80% control of Tetranychus urticae: A6, A11, A15, A19, A20, A22, A26, A35, A58, and A64.

[2] = tested on: Tetranychus urticae (Two-Spotted Spider Mite); assay: Tetranychus urticae bean leaf disc spray test; settings: same protocol, 200 ppm, 8 days
Method: as §1, §2

[3] = tested on: Spodoptera littoralis (Egyptian Cotton Leafworm); assay: Spodoptera littoralis cotton leaf disc spray test; settings: same protocol, 200 ppm, 3 DAT
Method: as §1
Spodoptera littoralis (Egyptian Cotton Leafworm)
as §2

[4] = tested on: Diabrotica balteata (Corn Root Worm); assay: Diabrotica balteata larvae test on artificial diet; settings: same protocol, 200 ppm (18 ppm in well), 5 days
Method: as §1, §2

[5] = tested on: Heliothis virescens (Tobacco Budworm); assay: Heliothis virescens egg test on artificial diet; settings: same protocol, 200 ppm (18 ppm in well), 4 days
Method: as §1, §2

[6] = tested on: Plutella xylostella (Diamond Back Moth); assay: Plutella xylostella larvae test on artificial diet; settings: same protocol, 200 ppm (18 ppm in well), 6 days
Method: as §1, §2

Measured: effect on mortality, feeding behavior, or growth regulation

CCc1cc(C(F)(C(F)(F)F)C(F)(F)C(F)(F)F)cc(C)c1NC(=O)c1ccc(C(=O)Nc2nc3c(C)cccc3s2)c(C)c1 (stereo not drawn) [A62]
no or little effect: all assays above

CCc1cc(C(F)(C(F)(F)F)C(F)(F)C(F)(F)F)cc(C)c1NC(=O)c1ccc(C(=O)Nc2nnc(C)s2)c(C)c1 (stereo not drawn) [A63]
no or little effect: all assays above

CCc1cc(C(F)(C(F)(F)F)C(F)(F)C(F)(F)F)cc(C)c1NC(=O)c1ccc(C(=O)Nc2nc(-c3ccc(C)cc3)cs2)c(C)c1 (stereo not drawn) [A66]
no or little effect: all assays above

CCc1cc(C(F)(C(F)(F)F)C(F)(F)C(F)(F)F)cc(C)c1NC(=O)c1ccc(C(=O)NCCCN2CCCCC2)c(C)c1 (stereo not drawn) [A67]
no or little effect: all assays above

CCc1cc(C(F)(C(F)(F)F)C(F)(F)C(F)(F)F)cc(C)c1NC(=O)c1ccc(C(=O)NCc2cc(-c3ccc(Cl)cc3)no2)c(C)c1 (stereo not drawn) [A68]
no or little effect: all assays above

CCc1cc(C(F)(C(F)(F)F)C(F)(F)C(F)(F)F)cc(C)c1NC(=O)c1ccc(C(=O)NC2CC(C)(C)N(C)C(C)(C)C2)c(C)c1 (stereo not drawn) [A72]
no or little effect: all assays above

CCc1cc(C(F)(C(F)(F)F)C(F)(F)C(F)(F)F)cc(C)c1NC(=O)c1ccc(C(=O)NCc2ccc(C(C)(C)C)cc2)c(C)c1 (stereo not drawn) [A81]
no or little effect: all assays above

CCc1cc(C(F)(C(F)(F)F)C(F)(F)C(F)(F)F)cc(C)c1NC(=O)c1ccc(C(=O)NCc2ccc(Br)cc2F)c(C)c1 (stereo not drawn) [A83]
no or little effect: all assays above

CCc1cc(C(F)(C(F)(F)F)C(F)(F)C(F)(F)F)cc(C)c1NC(=O)c1ccc(C(=O)NCc2ccc(C)c(C)c2)c(C)c1 (stereo not drawn) [A91]
no or little effect: all assays above
